Experimental data published in US9249147B2, “Tyrosine kinase inhibitors” (CHEMBRIDGE CORPORATION, priority 2008, dated 2016).
pIC50: −log10 of the molar value.

Assays:
Assay type in all cases: biochemical
IGF1R = biological target: T1, IGF1R (Homo sapiens, UniProt P08069); assay: IGF1R kinase assay; conditions: Table 1; read-out: IGF1R IC50
T1 construct: 6×His- or GST-tagged kinase domain fragments of the corresponding RTKs expressed in baculovirus system; host or cells: baculovirus system
Experimental: (§1) To determine inhibition of several tyrosine kinases, such as IGF1R, InsR, Alk, TrkA and Jak2, kinase assays are conducted using either Kinase-Glo (Promega) or AlphaScreen (PerkinElmer) kinase assay platforms. The Kinase-Glo Luminescent Kinase Assay is a homogeneous method for measuring kinase activity by determining the amount of ATP remaining after a kinase reaction. The luminescent signal is proportional to the amount of ATP and inversely proportional to the amount of kinase activity. Tyrosine kinase PT66 AlphaScreen Assay is a high-sensitivity homogeneous, anti-phosphotyrosine antibody-mediated luminescent proximity method measuring incorporation of phosphate in synthetic poly(Glu-Tyr) substrate. The kinase preparations used consist of purified recombinant, 6×His- or GST-tagged kinase domain fragments of the corresponding RTKs expressed in baculovirus system.
(§2) Compounds with a range of concentrations 40 μM, 20 μM, 10 μM, 5 μM, 2.5 μM, 1.25 μM, 0.625 μM, 0.3125 μM, 0.15625 μM and 0.078125 μM were incubated with NPM-ALK, which was produced in insect cells as a 6×HIS-tagged fusion protein and purified using nickel-charged resin chromatography, for 30 minutes at RT in the presence of 10 μM ATP and 7.0 ng biotinylated poly-GT. A 1:1 mixture of […] and donor beads was then added to the reaction and incubated for an additional 60 minutes at RT. The assay was conducted on a MultiPROBE liquid handling workstation (PerkinElmer) in a 384-well plate format with a total reaction volume of 40 μL per well. Working stocks of all compounds were dissolved in 100% DMSO and serial dilutions of the compounds were performed using kinase buffer (50 mM Tris-HCl (pH 7.5), 5 mM MgCl2, 5 mM MnCl2, 2 mM DTT (added freshly before use), 0.01% Tween-20) containing 5% DMSO. […] Data were collected as optical readings at 520-680 nm on a Fusion™ microplate analyzer (PerkinElmer), and IC50 and Ki values calculated using PRISM3.0 software (GraphPad Software, Inc., San Diego, Calif.). The same assay was also used with minor modifications to assess the IC50 and Ki values for selected compounds against five other tyrosine kinases (IRK, IGF1R, Flt3, Abl, Src), all of which were purchased from commercial vendors. PolyGT-Biotin was bought from CIS Biointernational Cat. #61GT0BLD; ATP—from Sigma Cat. # A7699; sodium orthovanadate—from Sigma Cat. #S-6508; phosphotyrosine (PT66) assay kit from PerkinElmer Cat. #6760602M; automated workstation tips (20 μL): PerkinElmer Cat. #6000657; and OptiPlate-384 (white)—from PerkinElmer Cat. #6007299.

ALK = ALK (Homo sapiens, UniProt Q9UM73); assay: ALK kinase assay (Kinase-Glo / AlphaScreen, purified NPM-ALK); parameters: fused to the complete intracytoplasmic portion of ALK containing the functional tyrosine kinase domain; 6xHis; made in house; host or cells: insect cells; the other entry of the earlier key: NPM1 (P06748, Nucleophosmin); conditions: Table 1; read-out: ALK IC50
IRK = biological target: T2, IRK (Homo sapiens, UniProt P06213); assay: IRK (insulin receptor kinase) assay; conditions: Table 1; read-out: IRK IC50
T2 construct: 6×His- or GST-tagged kinase domain fragments of the corresponding RTKs expressed in baculovirus system; host or cells: baculovirus system
Experimental: as §1, §2

ALK, sequence (Q9UM73 with tags, fused parts or gaps): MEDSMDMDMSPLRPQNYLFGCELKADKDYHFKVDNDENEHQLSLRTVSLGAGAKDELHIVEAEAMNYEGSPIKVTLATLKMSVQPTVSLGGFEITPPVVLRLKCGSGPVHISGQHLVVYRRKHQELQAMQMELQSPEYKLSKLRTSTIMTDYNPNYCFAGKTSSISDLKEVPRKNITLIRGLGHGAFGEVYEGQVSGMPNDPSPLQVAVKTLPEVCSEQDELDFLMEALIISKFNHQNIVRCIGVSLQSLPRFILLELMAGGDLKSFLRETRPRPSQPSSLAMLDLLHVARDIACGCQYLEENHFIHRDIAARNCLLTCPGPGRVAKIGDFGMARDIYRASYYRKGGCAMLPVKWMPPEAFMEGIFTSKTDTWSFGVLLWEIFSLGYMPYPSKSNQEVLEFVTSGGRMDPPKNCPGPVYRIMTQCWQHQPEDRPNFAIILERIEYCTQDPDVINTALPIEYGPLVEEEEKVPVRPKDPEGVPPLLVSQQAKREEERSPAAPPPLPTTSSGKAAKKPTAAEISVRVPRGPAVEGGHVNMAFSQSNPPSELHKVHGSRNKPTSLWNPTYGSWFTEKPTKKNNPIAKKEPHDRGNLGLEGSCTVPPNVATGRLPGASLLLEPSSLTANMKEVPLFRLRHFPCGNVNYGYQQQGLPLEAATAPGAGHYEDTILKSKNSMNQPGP
T1 sequence (P08069 999-1274 limits assumed): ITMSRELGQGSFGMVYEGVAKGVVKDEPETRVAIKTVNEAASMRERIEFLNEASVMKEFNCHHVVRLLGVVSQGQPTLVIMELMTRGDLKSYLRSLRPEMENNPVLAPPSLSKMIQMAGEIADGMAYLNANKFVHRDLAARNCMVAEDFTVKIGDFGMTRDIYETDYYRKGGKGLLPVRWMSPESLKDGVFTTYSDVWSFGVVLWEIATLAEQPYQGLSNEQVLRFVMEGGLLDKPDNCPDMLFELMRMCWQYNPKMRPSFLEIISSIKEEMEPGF
T2 sequence (P06213 1023-1298 limits assumed): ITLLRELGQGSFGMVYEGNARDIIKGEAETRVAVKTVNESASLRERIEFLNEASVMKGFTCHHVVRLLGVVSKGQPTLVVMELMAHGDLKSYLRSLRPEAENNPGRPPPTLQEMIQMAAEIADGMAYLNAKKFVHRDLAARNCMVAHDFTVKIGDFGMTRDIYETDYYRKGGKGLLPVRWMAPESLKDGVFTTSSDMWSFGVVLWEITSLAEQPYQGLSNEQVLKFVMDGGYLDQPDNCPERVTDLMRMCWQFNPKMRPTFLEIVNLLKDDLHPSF

pIC50 (IGF1R) | pIC50 (ALK) | pIC50 (IRK) | Compound
< 6.00 | 6.00 to 6.60 | < 6.00 | CC(Cc1cccs1)Nc1cc[nH]c(=O)c1-c1nc2cc3c(cc2[nH]1)C(=O)N(C1CCN(C)CC1)C3=O (stereo not drawn)
< 6.00 | 6.60 to 7.00 | < 6.00 | CC(Cc1cccs1)Nc1cc[nH]c(=O)c1-c1nc2cc3c(cc2[nH]1)C(=O)N(CCCN1CCCC1)C3=O (stereo not drawn)
< 6.00 | < 6.00 | < 6.00 | C[C@H](Cc1cccs1)Nc1cc[nH]c(=O)c1-c1nc2cc3c(cc2[nH]1)C(=O)N(CCCN1CCCC1)C3=O
< 6.00 | < 6.00 | 6.00 to 6.60 | C[C@H](Cc1cccs1)Nc1cc[nH]c(=O)c1-c1nc2cc3c(cc2[nH]1)C(=O)N(CCCN1CCCC1)C3
< 6.00 | < 6.00 | < 6.00 | C[C@H](Cc1cccs1)Nc1cc[nH]c(=O)c1-c1nc2c(Cl)c3c(cc2[nH]1)C(=O)N(C1CCN(C)CC1)C3=O
6.60 to 7.00 | 6.60 to 7.00 | < 6.00 | CC(Cc1ccccc1F)Nc1cc[nH]c(=O)c1-c1nc2cc3c(cc2[nH]1)C(=O)N(CCCN1CCCC1)C3 (stereo not drawn)
< 6.00 | < 6.00 | < 6.00 | CC(Cc1cccs1)N(C)c1cc[nH]c(=O)c1-c1nc2cc3c(cc2[nH]1)C(=O)N(CCCN1CCCC1)C3 (stereo not drawn)
6.00 to 6.60 | 6.60 to 7.00 | 6.60 to 7.00 | C[C@@H](Cc1cccs1)Nc1cc[nH]c(=O)c1-c1nc2cc3c(cc2[nH]1)C(=O)N(CCCN(C)C)C3
6.00 to 6.60 | 6.00 to 6.60 | 6.60 to 7.00 | C[C@@H](Cc1cccs1)Nc1cc[nH]c(=O)c1-c1nc2cc3c(cc2[nH]1)C(=O)N(CCN1CCCC1)C3
6.00 to 6.60 | 6.60 to 7.00 | 6.00 to 6.60 | C[C@H](Nc1cc[nH]c(=O)c1-c1nc2cc3c(cc2[nH]1)C(=O)N(CCCN1CCCC1)C3)[C@H](O)c1ccccc1
6.60 to 7.00 | 6.60 to 7.00 | 6.00 to 6.60 | C[C@@H](Cc1cccs1)Nc1cc[nH]c(=O)c1-c1nc2cc3c(cc2[nH]1)C(=O)N(C1CCN(CCS(C)(=O)=O)CC1)C3
6.00 to 6.60 | 6.60 to 7.00 | 6.60 to 7.00 | CCS(=O)(=O)CCN1CCC(N2Cc3cc4nc(-c5c(N[C@@H](C)Cc6cccs6)cc[nH]c5=O)[nH]c4cc3C2=O)CC1
< 6.00 | 6.60 to 7.00 |  | C[C@@H](Cc1cccs1)Nc1cc[nH]c(=O)c1-c1nc2cc3c(cc2[nH]1)C(=O)N(CCCN1CCCC1)C3=O
< 6.00 | 6.60 to 7.00 |  | C[C@@H](Cc1cccs1)Nc1cc[nH]c(=O)c1-c1nc2cc3c(cc2[nH]1)C(=O)N(CCCCN1CCCC1)C3
6.00 to 6.60 | 7.00 to 8.00 | 7.00 to 8.00 | Cc1ccsc1C[C@H](C)Nc1cc[nH]c(=O)c1-c1nc2cc3c(cc2[nH]1)CN(CCN1CCCC1)C3=O
6.00 to 6.60 | 7.00 to 8.00 |  | C[C@@H](Cc1sccc1C(F)(F)F)Nc1cc[nH]c(=O)c1-c1nc2cc3c(cc2[nH]1)CN(CCN1CCCC1)C3=O
6.60 to 7.00 | 7.00 to 8.00 | 6.60 to 7.00 | C[C@@H](Cc1sccc1Cl)Nc1cc[nH]c(=O)c1-c1nc2cc3c(cc2[nH]1)CN(CCN1CCCC1)C3=O
6.00 to 6.60 | 6.60 to 7.00 |  | Cc1ccsc1C[C@H](C)Nc1cc[nH]c(=O)c1-c1nc2cc3c(cc2[nH]1)CN(CCN1CCC[C@@H]1C)C3=O
6.00 to 6.60 | 7.00 to 8.00 |  | Cc1ccsc1C[C@H](C)Nc1cc[nH]c(=O)c1-c1nc2cc3c(cc2[nH]1)C(=O)N(CC(C)CN1CCCC1)C3 (stereo partly drawn)
< 6.00 | 7.00 to 8.00 | 6.00 to 6.60 | Cc1cc(F)ccc1C[C@H](C)Nc1cc[nH]c(=O)c1-c1nc2cc3c(cc2[nH]1)C(=O)N(CCN1CCCC1)C3

pIC50 (IGF1R) | pIC50 (ALK) | pIC50 (IRK) | Compound
6.60 to 7.00 | 6.60 to 7.00 | < 6.00 | Cc1ccc(F)cc1C[C@H](C)Nc1cc[nH]c(=O)c1-c1nc2cc3c(cc2[nH]1)C(=O)N(CCN(C)C)C3=O
6.00 to 6.60 | 7.00 to 8.00 | < 6.00 | Cc1ccc(F)cc1C[C@H](C)Nc1cc[nH]c(=O)c1-c1nc2cc3c(cc2[nH]1)CNC3=O
6.60 to 7.00 | 7.00 to 8.00 | 6.00 to 6.60 | COc1ccc(F)cc1C[C@H](C)Nc1cc[nH]c(=O)c1-c1nc2cc3c(cc2[nH]1)CN(CCN1CCCC1)C3=O
6.60 to 7.00 | 7.00 to 8.00 | 6.00 to 6.60 | COc1ccc(F)cc1C[C@H](C)Nc1cc[nH]c(=O)c1-c1nc2cc3c(cc2[nH]1)CN(CCN(C)C)C3=O
6.60 to 7.00 | 6.60 to 7.00 | < 6.00 | Cc1ccc(F)cc1C[C@H](C)Nc1cc[nH]c(=O)c1-c1nc2cc3c(cc2[nH]1)CN(CCN1CCOCC1)C3=O
6.60 to 7.00 | 6.60 to 7.00 | < 6.00 | COc1ccc(F)cc1C[C@H](C)Nc1cc[nH]c(=O)c1-c1nc2cc3c(cc2[nH]1)CN(CCN1CCOCC1)C3=O
6.00 to 6.60 | 6.60 to 7.00 | 6.00 to 6.60 | C[C@@H](Cc1cc(F)ccc1Cl)Nc1cc[nH]c(=O)c1-c1nc2cc3c(cc2[nH]1)CN(CCN1CCCC1)C3=O
6.60 to 7.00 | 6.00 to 6.60 | 6.00 to 6.60 | Cc1ccc(C(F)(F)F)cc1C[C@H](C)Nc1cc[nH]c(=O)c1-c1nc2cc3c(cc2[nH]1)CN(CCN(C)C)C3=O
< 6.00 | < 6.00 | < 6.00 | Cc1ccc(N(C)C)cc1C[C@H](C)Nc1cc[nH]c(=O)c1-c1nc2cc3c(cc2[nH]1)CN(CCN1CCCC1)C3=O
< 6.00 | < 6.00 | 6.00 to 6.60 | Cc1ccc(C(F)(F)F)cc1C[C@H](C)Nc1cc[nH]c(=O)c1-c1nc2cc3c(cc2[nH]1)CN(CCN1CCCC1)C3=O
6.00 to 6.60 | 7.00 to 8.00 | < 6.00 | C[C@@H](Cc1cc(F)cc(F)c1F)Nc1cc[nH]c(=O)c1-c1nc2cc3c(cc2[nH]1)CN(CCN1CCOCC1)C3=O
< 6.00 | 6.00 to 6.60 | < 6.00 | Cc1ccc(C(F)(F)F)cc1C[C@H](C)Nc1cc[nH]c(=O)c1-c1nc2cc3c(cc2[nH]1)CN(CCN1CCOCC1)C3=O
< 6.00 | 6.00 to 6.60 | 6.60 to 7.00 | C[C@@H](Cc1ccccc1Cl)Nc1cc[nH]c(=O)c1-c1nc2cc3c(cc2[nH]1)CN(CCN1CCCC1)C3=O
< 6.00 | 6.00 to 6.60 | 6.60 to 7.00 | Cc1ccc(Cl)cc1C[C@H](C)Nc1cc[nH]c(=O)c1-c1nc2cc3c(cc2[nH]1)CN(CCN1CCCC1)C3=O
< 6.00 | 7.00 to 8.00 | 6.00 to 6.60 | COc1ccc(C)c(C[C@H](C)Nc2cc[nH]c(=O)c2-c2nc3cc4c(cc3[nH]2)CN(CCN2CCCC2)C4=O)c1
< 6.00 | 6.60 to 7.00 | 6.00 to 6.60 | COc1ccc(OC)c(C[C@H](C)Nc2cc[nH]c(=O)c2-c2nc3cc4c(cc3[nH]2)CN(CCN2CCCC2)C4=O)c1
< 6.00 | 7.00 to 8.00 | 6.00 to 6.60 | COc1cc(F)c(F)c(C[C@H](C)Nc2cc[nH]c(=O)c2-c2nc3cc4c(cc3[nH]2)CN(CCN2CCCC2)C4=O)c1OC
< 6.00 | 7.00 to 8.00 | 6.00 to 6.60 | CCc1ccccc1C[C@H](C)Nc1cc[nH]c(=O)c1-c1nc2cc3c(cc2[nH]1)CN(CCN1CCCC1)C3=O
< 6.00 | 6.60 to 7.00 | < 6.00 | CN1CCC(N2C(=O)c3cc4nc(-c5c(N[C@@H](CO)Cc6ccccc6)cc[nH]c5=O)[nH]c4cc3C2=O)CC1
7.00 to 8.00 | 6.00 to 6.60 |  | CNCCN1Cc2cc3[nH]c(-c4c(N[C@@H](C)Cc5cc(F)ccc5C)cc[nH]c4=O)nc3cc2C1=O [drawing 348]
